Reference: patent US20230167073A1 (Teijin Pharma Limited, priority 2020, published 2023)

target: T1, Human TRPC6 (Homo sapiens, UniProt Q9Y210); assay: Evaluation of TRPC6 channel inhibitory activity (1), FLIPR Calcium 5 Assay Kit, OAG stimulation (Compound Nos. 1-1293); assay type: cell-based; details: Human TRPC6 stably-expressing cells, OAG 30 μM, FLIPR Calcium 5 Assay Kit; read-out: Inhibitory activity (pIC50 class) (converted)
T1 construct: expressed in transfected cells
T1 sequence (Q9Y210 1-931): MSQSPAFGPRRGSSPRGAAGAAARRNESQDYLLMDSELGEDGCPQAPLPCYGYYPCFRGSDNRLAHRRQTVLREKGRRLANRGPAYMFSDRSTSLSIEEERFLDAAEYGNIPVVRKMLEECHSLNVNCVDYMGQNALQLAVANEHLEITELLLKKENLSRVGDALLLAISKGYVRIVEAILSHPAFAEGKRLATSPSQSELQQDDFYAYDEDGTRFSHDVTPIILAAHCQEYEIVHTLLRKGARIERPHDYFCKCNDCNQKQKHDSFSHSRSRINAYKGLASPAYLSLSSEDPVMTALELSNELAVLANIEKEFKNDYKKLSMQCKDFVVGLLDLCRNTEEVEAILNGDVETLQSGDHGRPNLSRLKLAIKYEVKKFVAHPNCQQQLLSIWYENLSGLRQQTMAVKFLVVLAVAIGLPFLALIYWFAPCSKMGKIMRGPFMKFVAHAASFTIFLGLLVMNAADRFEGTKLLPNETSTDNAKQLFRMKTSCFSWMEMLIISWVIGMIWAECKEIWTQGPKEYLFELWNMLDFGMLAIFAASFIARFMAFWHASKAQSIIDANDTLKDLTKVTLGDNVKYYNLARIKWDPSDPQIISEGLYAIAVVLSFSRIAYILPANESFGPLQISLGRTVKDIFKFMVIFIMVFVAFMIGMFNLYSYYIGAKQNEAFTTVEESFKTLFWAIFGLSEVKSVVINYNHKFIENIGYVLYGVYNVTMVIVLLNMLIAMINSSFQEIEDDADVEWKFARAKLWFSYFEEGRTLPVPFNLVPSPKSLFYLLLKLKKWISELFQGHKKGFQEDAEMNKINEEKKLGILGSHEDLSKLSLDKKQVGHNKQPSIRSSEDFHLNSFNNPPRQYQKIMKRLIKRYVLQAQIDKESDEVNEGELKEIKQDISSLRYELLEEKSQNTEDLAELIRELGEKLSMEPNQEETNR
Procedure, shortened: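 Readout is pIC50 from four-parameter logistic fitting of inhibition of the OAG-evoked (30 μM final) fluorescence calcium signal. Human TRPC6 stable cells are dye-loaded with probenecid, and compound is applied 20 min ahead of agonist.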

**Q.** With `Cc1sc(N2CCOCC2)nc1C(=O)c1cc(C#N)ccc1-c1ncc(CCN)cn1` [compound 1070, 4-[5-(2-aminoethyl)pyrimidin-2-yl]-3-(5-methyl-2-morpholin-4-yl-1,3-thiazole-4-carbonyl)benzonitrile] as the molecule, how does the IC50 read?
**A.** Its IC50 is over 1000 nM.

**Q.** `Cn1nc(N2CCCC2)cc1C(=O)c1cc(C#N)ccc1-c1ncc(CCN)cn1` [compound 1071, 4-[5-(2-aminoethyl)pyrimidin-2-yl]-3-(2-methyl-5-pyrrolidin-1-ylpyrazole-3-carbonyl)benzonitrile] was tested. Which IC50 did it give?
**A.** Its IC50 is under 10 nM.

**Q.** How did the IC50 turn out when `Cn1nc(N2CCCC2)cc1C(=O)c1cc(C#N)ccc1-c1ncc(CN)cn1` [compound 1072, 4-[5-(aminomethyl)pyrimidin-2-yl]-3-(2-methyl-5-pyrrolidin-1-ylpyrazole-3-carbonyl)benzonitrile] was run?
**A.** Its IC50 is under 10 nM.

**Q.** How did the IC50 turn out when `CCN(CC(F)F)c1cc(C(=O)c2cc(C#N)ccc2-c2ncc(CCN)cn2)n(C)n1` [compound 1073, 4-[5-(2-aminoethyl)pyrimidin-2-yl]-3-[5-[2,2-difluoroethyl(ethyl)amino]-2-methylpyrazole-3-carbonyl]benzonitrile] was run?
**A.** Its IC50 is under 10 nM.

**Q.** With `CCN(CC(F)F)c1cc(C(=O)c2cc(C#N)ccc2-c2ncc(CN)cn2)n(C)n1` [compound 1074, 4-[5-(aminomethyl)pyrimidin-2-yl]-3-[5-[2,2-difluoroethyl(ethyl)amino]-2-methylpyrazole-3-carbonyl]benzonitrile] as the molecule, how does the IC50 read?
**A.** The IC50 was under 10 nM.

**Q.** For `CNc1cc(C(=O)c2cc(C#N)ccc2-c2ccc(CCN)cn2)n(C)n1` [compound 1075, 4-[5-(2-aminoethyl)pyridin-2-yl]-3-[2-methyl-5-(methylamino)pyrazole-3-carbonyl]benzonitrile], which IC50 is on record?
**A.** The IC50 was under 10 nM.

**Q.** `Cc1nc(N2CCOCC2)sc1C(=O)c1cc(C#N)ccc1-c1ccc(CCN)cn1` [compound 1076, 4-[5-(2-aminoethyl)pyridin-2-yl]-3-(4-methyl-2-morpholin-4-yl-1,3-thiazole-5-carbonyl)benzonitrile] was tested. Which IC50 did it give?
**A.** The IC50 was under 10 nM.

**Q.** With `N#Cc1ccc(-c2ccc(CCN)cn2)c(C(=O)c2sc(N3CCOCC3)nc2C(F)(F)F)c1` [compound 1077, 4-[5-(2-aminoethyl)pyridin-2-yl]-3-[2-morpholin-4-yl-4-(trifluoromethyl)-1,3-thiazole-5-carbonyl]benzonitrile] as the molecule, how does the IC50 read?
**A.** Its IC50 is under 10 nM.

**Q.** For `N#Cc1ccc(-c2ncc(CCN)cn2)c(C(=O)c2sc(N3CCOCC3)nc2C(F)(F)F)c1` [compound 1078, 4-[5-(2-aminoethyl)pyrimidin-2-yl]-3-[2-morpholin-4-yl-4-(trifluoromethyl)-1,3-thiazole-5-carbonyl]benzonitrile], which IC50 is on record?
**A.** The IC50 was under 10 nM.

**Q.** For `N#Cc1ccc(-c2ccc(CCN)cc2)c(C(=O)c2cnnc(N3CCOCC3)c2)c1` [compound 1079, 4-[4-(2-aminoethyl)phenyl]-3-(6-morpholin-4-ylpyridazine-4-carbonyl)benzonitrile], which IC50 is on record?
**A.** Its IC50 is under 10 nM.

**Q.** With `N#Cc1ccc(-c2ccc(CN)cn2)c(C(=O)c2sc(N3CCOCC3)nc2C(F)(F)F)c1` [compound 1080, 4-[5-(aminomethyl)pyridin-2-yl]-3-[2-morpholin-4-yl-4-(trifluoromethyl)-1,3-thiazole-5-carbonyl]benzonitrile] as the molecule, how does the IC50 read?
**A.** The IC50 was under 10 nM.

**Q.** How did the IC50 turn out when `N#Cc1ccc(-c2ccc(CCN)cc2)c(C(=O)c2cnc(N3CCOCC3)o2)c1` [compound 1081, 4-[4-(2-aminoethyl)phenyl]-3-(2-morpholin-4-yl-1,3-oxazole-5-carbonyl)benzonitrile] was run?
**A.** The IC50 was 10 to 1000 nM.

**Q.** For `N#Cc1ccc(-c2ncc(CN)cn2)c(C(=O)c2cnc(N3CCOCC3)o2)c1` [compound 1082, 4-[5-(aminomethyl)pyrimidin-2-yl]-3-(2-morpholin-4-yl-1,3-oxazole-5-carbonyl)benzonitrile], which IC50 is on record?
**A.** Its IC50 is over 1000 nM.

**Q.** With `N#Cc1ccc(-c2ccc(CCN)cn2)c(C(=O)c2cnc(N3CCOCC3)o2)c1` [compound 1083, 4-[5-(2-aminoethyl)pyridin-2-yl]-3-(2-morpholin-4-yl-1,3-oxazole-5-carbonyl)benzonitrile] as the molecule, how does the IC50 read?
**A.** The IC50 was 10 to 1000 nM.

**Q.** How did the IC50 turn out when `N#Cc1ccc(-c2ncc(CCN)cn2)c(C(=O)c2cnc(N3CCOCC3)o2)c1` [compound 1084, 4-[5-(2-aminoethyl)pyrimidin-2-yl]-3-(2-morpholin-4-yl-1,3-oxazole-5-carbonyl)benzonitrile] was run?
**A.** Its IC50 is 10 to 1000 nM.

**Q.** For `N#Cc1ccc(-c2ccc(CN)cn2)c(C(=O)c2cnc(N3CCOCC3)o2)c1` [compound 1085, 4-[5-(aminomethyl)pyridin-2-yl]-3-(2-morpholin-4-yl-1,3-oxazole-5-carbonyl)benzonitrile], which IC50 is on record?
**A.** Its IC50 is 10 to 1000 nM.

**Q.** Which IC50 does the source give for `N#Cc1ccc(-c2ccc(CCN)cc2)c(C(=O)c2nnc(N3CCOCC3)o2)c1` [compound 1086, 4-[4-(2-aminoethyl)phenyl]-3-(5-morpholin-4-yl-1,3,4-oxadiazole-2-carbonyl)benzonitrile] here?
**A.** The IC50 was under 10 nM.

**Q.** Which IC50 does the source give for `N#Cc1ccc(-c2ncc(CN)cn2)c(C(=O)c2sc(N3CCOCC3)nc2C(F)(F)F)c1` [compound 1087, 4-[5-(aminomethyl)pyrimidin-2-yl]-3-[2-morpholin-4-yl-4-(trifluoromethyl)-1,3-thiazole-5-carbonyl]benzonitrile] here?
**A.** The IC50 was under 10 nM.

**Q.** Which IC50 does the source give for `N#Cc1ccc(-c2ccc(CCN)cc2)c(C(=O)c2nnc(N3CCOCC3)s2)c1` [compound 1088, 4-[4-(2-aminoethyl)phenyl]-3-(5-morpholin-4-yl-1,3,4-thiadiazole-2-carbonyl)benzonitrile] here?
**A.** Its IC50 is 10 to 1000 nM.

**Q.** Which IC50 does the source give for `N#Cc1ccc(-c2ccc(CN)cn2)c(C(=O)c2nnc(N3CCOCC3)o2)c1` [compound 1089, 4-[5-(aminomethyl)pyridin-2-yl]-3-(5-morpholin-4-yl-1,3,4-oxadiazole-2-carbonyl)benzonitrile] here?
**A.** The IC50 was 10 to 1000 nM.

**Q.** Which IC50 does the source give for `N#Cc1ccc(-c2ncc(CN)cn2)c(C(=O)c2nnc(N3CCOCC3)o2)c1` [compound 1090, 4-[5-(aminomethyl)pyrimidin-2-yl]-3-(5-morpholin-4-yl-1,3,4-oxadiazole-2-carbonyl)benzonitrile] here?
**A.** The IC50 was over 1000 nM.

**Q.** With `N#Cc1ccc(-c2ccc(CCN)cn2)c(C(=O)c2nnc(N3CCOCC3)o2)c1` [compound 1091, 4-[5-(2-aminoethyl)pyridin-2-yl]-3-(5-morpholin-4-yl-1,3,4-oxadiazole-2-carbonyl)benzonitrile] as the molecule, how does the IC50 read?
**A.** The IC50 was 10 to 1000 nM.

**Q.** For `N#Cc1ccc(-c2ncc(CCN)cn2)c(C(=O)c2nnc(N3CCOCC3)o2)c1` [compound 1092, 4-[5-(2-aminoethyl)pyrimidin-2-yl]-3-(5-morpholin-4-yl-1,3,4-oxadiazole-2-carbonyl)benzonitrile], which IC50 is on record?
**A.** Its IC50 is 10 to 1000 nM.

**Q.** For `N#Cc1ccc(-c2ccc(CN)cn2)c(C(=O)c2nnc(N3CCOCC3)s2)c1` [compound 1093, 4-[5-(aminomethyl)pyridin-2-yl]-3-(5-morpholin-4-yl-1,3,4-thiadiazole-2-carbonyl)benzonitrile], which IC50 is on record?
**A.** Its IC50 is over 1000 nM.

**Q.** With `N#Cc1ccc(-c2ccc(CCN)cn2)c(C(=O)c2nnc(N3CCOCC3)s2)c1` [compound 1094, 4-[5-(2-aminoethyl)pyridin-2-yl]-3-(5-morpholin-4-yl-1,3,4-thiadiazole-2-carbonyl)benzonitrile] as the molecule, how does the IC50 read?
**A.** The IC50 was 10 to 1000 nM.

**Q.** How did the IC50 turn out when `N#Cc1ccc(-c2ncc(CN)cn2)c(C(=O)c2nnc(N3CCOCC3)s2)c1` [compound 1095, 4-[5-(aminomethyl)pyrimidin-2-yl]-3-(5-morpholin-4-yl-1,3,4-thiadiazole-2-carbonyl)benzonitrile] was run?
**A.** The IC50 was over 1000 nM.

**Q.** `N#Cc1ccc(-c2ncc(CCN)cn2)c(C(=O)c2nnc(N3CCOCC3)s2)c1` [compound 1096, 4-[5-(2-aminoethyl)pyrimidin-2-yl]-3-(5-morpholin-4-yl-1,3,4-thiadiazole-2-carbonyl)benzonitrile] was tested. Which IC50 did it give?
**A.** The IC50 was 10 to 1000 nM.

**Q.** With `Cc1cc(C(=O)c2cc(F)ccc2-c2ncc(CCN)cn2)cc(N2CCOCC2)n1` [compound 1097, [2-[5-(2-aminoethyl)pyrimidin-2-yl]-5-fluorophenyl]-(2-methyl-6-morpholin-4-ylpyridin-4-yl)methanone] as the molecule, how does the IC50 read?
**A.** Its IC50 is under 10 nM.

**Q.** Which IC50 does the source give for `NCCc1cnc(-c2ccc(F)cc2C(=O)c2cnn(CC(F)F)c2)nc1` [compound 1098, [2-[5-(2-aminoethyl)pyrimidin-2-yl]-5-fluorophenyl]-[1-(2,2-difluoroethyl)pyrazol-4-yl]methanone] here?
**A.** Its IC50 is over 1000 nM.

**Q.** With `NCc1cnc(-c2ccc(F)cc2C(=O)c2cnn(CC(F)F)c2)nc1` [compound 1099, [2-[5-(aminomethyl)pyrimidin-2-yl]-5-fluorophenyl]-[1-(2,2-difluoroethyl)pyrazol-4-yl]methanone] as the molecule, how does the IC50 read?
**A.** Its IC50 is over 1000 nM.

**Q.** `Cn1cc(C(=O)c2cc(F)ccc2-c2ncc(CCN)cn2)cn1` [compound 1100, [2-[5-(2-aminoethyl)pyrimidin-2-yl]-5-fluorophenyl]-(1-methylpyrazol-4-yl)methanone] was tested. Which IC50 did it give?
**A.** Its IC50 is over 1000 nM.
